Data on 15 compounds can be found in US8791107B2, “N-substituted oxazinopteridines and oxazinopteridinones” (Takeda Pharmaceutical Company Limited, priority 2011, dated 2014).

The structures appear in SMILES notation.

One test deals with T1, PI3Kδ (Homo sapiens, UniProt O00329).
T1 construct: The protein is full length and co-expressed with untagged PIK3R1; GST; purchased Invitrogen PV5274
T1 sequence (O00329 whole entry): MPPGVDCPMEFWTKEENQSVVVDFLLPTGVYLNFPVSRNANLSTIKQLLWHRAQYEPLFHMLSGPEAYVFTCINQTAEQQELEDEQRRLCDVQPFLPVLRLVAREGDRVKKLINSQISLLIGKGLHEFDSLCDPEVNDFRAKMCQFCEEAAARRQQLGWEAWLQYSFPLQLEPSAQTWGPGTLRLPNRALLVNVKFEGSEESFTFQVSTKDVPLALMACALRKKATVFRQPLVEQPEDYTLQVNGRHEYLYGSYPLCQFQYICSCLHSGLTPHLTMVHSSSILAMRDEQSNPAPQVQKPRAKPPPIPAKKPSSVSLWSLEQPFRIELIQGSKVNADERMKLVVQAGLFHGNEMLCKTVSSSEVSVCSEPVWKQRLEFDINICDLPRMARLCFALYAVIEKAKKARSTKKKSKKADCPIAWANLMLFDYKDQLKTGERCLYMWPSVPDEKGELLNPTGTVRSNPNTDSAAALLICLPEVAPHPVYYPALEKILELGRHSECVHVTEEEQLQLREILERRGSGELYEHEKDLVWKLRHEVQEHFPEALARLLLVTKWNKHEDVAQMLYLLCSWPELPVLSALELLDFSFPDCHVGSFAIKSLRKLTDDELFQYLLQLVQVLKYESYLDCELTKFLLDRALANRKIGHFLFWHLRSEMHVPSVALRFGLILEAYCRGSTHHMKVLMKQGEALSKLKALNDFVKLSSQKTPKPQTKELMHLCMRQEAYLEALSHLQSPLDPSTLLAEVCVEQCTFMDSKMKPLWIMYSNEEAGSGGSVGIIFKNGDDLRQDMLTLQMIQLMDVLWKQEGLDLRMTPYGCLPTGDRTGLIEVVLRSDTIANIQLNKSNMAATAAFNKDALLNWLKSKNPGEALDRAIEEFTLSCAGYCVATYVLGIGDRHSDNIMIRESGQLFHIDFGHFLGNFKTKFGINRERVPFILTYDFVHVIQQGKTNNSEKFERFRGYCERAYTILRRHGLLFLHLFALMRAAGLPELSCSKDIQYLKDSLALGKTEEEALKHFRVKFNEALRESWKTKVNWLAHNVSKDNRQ
T1 sequence (P27986 whole entry partner): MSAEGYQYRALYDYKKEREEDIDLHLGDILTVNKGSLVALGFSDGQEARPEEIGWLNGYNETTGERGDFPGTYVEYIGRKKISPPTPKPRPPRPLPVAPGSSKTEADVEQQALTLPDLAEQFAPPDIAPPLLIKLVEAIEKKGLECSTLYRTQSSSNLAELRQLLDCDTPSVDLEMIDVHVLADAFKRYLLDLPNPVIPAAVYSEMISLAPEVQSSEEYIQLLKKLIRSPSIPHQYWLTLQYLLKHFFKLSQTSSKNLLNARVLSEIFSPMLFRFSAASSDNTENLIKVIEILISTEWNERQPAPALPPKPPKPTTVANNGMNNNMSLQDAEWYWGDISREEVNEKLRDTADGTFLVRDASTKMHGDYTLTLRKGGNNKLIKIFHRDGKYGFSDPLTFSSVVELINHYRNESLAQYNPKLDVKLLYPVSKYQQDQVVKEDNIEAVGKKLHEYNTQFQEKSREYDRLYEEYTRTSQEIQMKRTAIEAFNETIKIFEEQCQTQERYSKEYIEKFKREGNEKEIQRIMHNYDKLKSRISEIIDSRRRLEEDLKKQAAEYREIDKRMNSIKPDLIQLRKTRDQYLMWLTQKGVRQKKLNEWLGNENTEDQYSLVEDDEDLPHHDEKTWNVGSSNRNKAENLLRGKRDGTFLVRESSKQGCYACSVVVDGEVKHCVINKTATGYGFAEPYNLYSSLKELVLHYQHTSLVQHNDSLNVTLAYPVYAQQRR
The test can be described thus: PI3Kδ inhibition, modified PIK3CD Adapta TR-FRET assay. It is filed as biochemical. The conditions noted are these: recombinant GST-tagged full length PIK3CD co-expressed with PIK3R1 (p85α); 2 μM ATP, 50 μM PIP2. In short, it runs like this: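 Inhibition was derived from % conversion against positive and negative controls, with ADP read by Adapta Eu-antibody/tracer TR-FRET. Room-temperature reactions used GST-PIK3CD/p85α in HEPES pH 7.5 buffer (MgCl2, EGTA, NaCl, CHAPS, fresh DTT), 1% DMSO final and 12 concentrations. They were initiated by adding 2 μM ATP/50 μM PIP2 solution.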
In general terms: TR-FRET usually uses a lanthanide donor and a delayed reading to cut background.
For the compound `CNC(=O)Nc1ccc(-c2ncc3c(n2)N2CCOC[C@H]2C(=O)N3[C@@H](C)c2ccc(C)cc2)cc1` (single isomer, unassigned) [Example 86], the “PI3Kδ Inhibition (pIC50)” value is given as 8.1.

The same test, now with this note: recombinant GST-tagged full length PIK3CD co-expressed with PIK3R1 (p85α); 2 μM ATP, 50 μM PIP2; read-out: PI3Kδ Inhibition (pIC50) (converted).
As for `c1ccc(-n2cc(CN3CC4COCCN4c4nc(-c5cccc6[nH]ccc56)ncc43)nn2)cc1` (stereo not drawn) [Example 40], the IC50 was 15.8 nM. Consider `NC(=O)c1ccc(CN2CC3COCCN3c3nc(-c4cccc5[nH]ccc45)ncc32)cc1` (stereo not drawn) [Example 78, 4-((2-(1H-indol-4-yl)-6a,7,9,10-tetrahydro-[1,4]oxazino[3,4-h]pteridin-5(6H)-yl)methyl)benzamide], for which the IC50 was 20 nM. Same read-out and setting: with `c1ccc(N2CC3COCCN3c3nc(-c4cccc5[nH]ccc45)ncc32)cc1` (stereo not drawn) [Example 181, 2-(1H-indol-4-yl)-5-phenyl-5,6,6a,7,9,10-hexahydro-[1,4]oxazino[3,4-h]pteridine] the figure was 79.4 nM; with `CS(=O)(=O)c1ccc(CN2C(=O)C3COCCN3c3nc(-c4ccc5cn[nH]c5c4)ncc32)cc1` (stereo not drawn) [Example 124, 2-(1H-indazol-6-yl)-5-(4-(methylsulfonyl)benzyl)-6a,7,9,10-tetrahydro-[1,4]oxazino[3,4-h]pteridin-6(5H)-one], 3980 nM; with `CS(=O)(=O)c1ccc(CN2CC3COCCN3c3nc(-c4cnc5cc[nH]c5c4)ncc32)cc1` (stereo not drawn) [Example 24, 5-(4-(methylsulfonyl)benzyl)-2-(1H-pyrrolo[3,2-b]pyridin-6-yl)-5,6,6a,7,9,10-hexahydro-[1,4]oxazino[3,4-h]pteridine], 63.1 nM.

As for `OCCN1C[C@@H]2COCCN2c2nc(-c3cccc4[nH]ccc34)ncc21` [Example 173, (R)-2-(2-(1H-indol-4-yl)-6a,7,9,10-tetrahydro-[1,4]oxazino[3,4-h]pteridin-5(6H)-yl)ethanol], the IC50 is 158 nM. Still for that read-out and setting: with `O=C(Cc1c(F)cccc1F)N1CC2COCCN2c2nc(-c3cccc4[nH]ccc34)ncc21` (stereo not drawn) [Example 54] the figure was 501 nM; with `CS(=O)(=O)c1ccc(CN2C[C@@H]3COCCN3c3nc(-c4cncc5[nH]ccc45)ncc32)cc1` [Example 30, (R)-5-(4-(methylsulfonyl)benzyl)-2-(1H-pyrrolo[2,3-c]pyridin-4-yl)-5,6,6a,7,9,10-hexahydro-[1,4]oxazino[3,4-h]pteridine], 1.26 nM; with `N#Cc1ccccc1CN1CC2COCCN2c2nc(-c3cccc4[nH]ccc34)ncc21` (stereo not drawn) [Example 45, 2-((2-(1H-indol-4-yl)-6a,7,9,10-tetrahydro-[1,4]oxazino[3,4-h]pteridin-5(6H)-yl)methyl)benzonitrile], 251 nM. Still for that read-out and setting: the same measure for `Cc1n[nH]cc1-c1ncc2c(n1)N1CCOCC1C(=O)N2Cc1ccc(S(C)(=O)=O)cc1` (stereo not drawn) [Example 130]: 126 nM; for `CS(=O)(=O)Nc1cccc(-c2ncc3c(n2)N2CCOCC2C(=O)N3Cc2ccc(S(C)(=O)=O)cc2)c1` (stereo not drawn) [Example 117, N-(3-(5-(4-(methylsulfonyl)benzyl)-6-oxo-5,6,6a,7,9,10-hexahydro-[1,4]oxazino[3,4-h]pteridin-2-yl)phenyl)methanesulfonamide]: 794 nM. Still for that read-out and setting: with `COc1cncc(N2C[C@@H]3COCCN3c3nc(-c4cccc5[nH]ccc45)ncc32)c1` [Example 201, (R)-2-(1H-indol-4-yl)-5-(5-methoxypyridin-3-yl)-5,6,6a,7,9,10-hexahydro-[1,4]oxazino[3,4-h]pteridine] the figure was 12.6 nM; with `c1cc(-c2ncc3c(n2)N2CCOC[C@H]2CN3c2cccc3[nH]ccc23)c2cc[nH]c2c1` [Example 193, (R)-2,5-di(1H-indol-4-yl)-5,6,6a,7,9,10-hexahydro-[1,4]oxazino[3,4-h]pteridine], 794 nM; with `COc1cccc2c(-c3ncc4c(n3)N3CCOCC3C(=O)N4Cc3ccc(S(C)(=O)=O)cc3)c[nH]c12` (stereo not drawn) [Example 138, 2-(7-methoxy-1H-indol-3-yl)-5-(4-(methylsulfonyl)benzyl)-6a,7,9,10-tetrahydro-[1,4]oxazino[3,4-h]pteridin-6(5H)-one], 3160 nM.
